Assay results taken from patent US6914045B2, “Glycopeptide antibiotics” (Wyeth Holdings Corporation, priority 2001, dated 2005).
Values after ≈ are worked out from the molar mass of the structure shown.

Experiments:
Assay in all cases: in vitro antibacterial evaluation, MIC by broth dilution
Assay type in all cases: cell-based
[1] = tested on: Enterococcus sp.; details: broth dilution, 18 hours at 35° C.
Method: (§1) Methods for in vitro Antibacterial Evaluation (Table 1)
(§2) The minimum inhibitory concentration (MIC), the lowest concentration of the antibiotic which inhibits growth of the test organism, is determined by the broth dilution method using Muller-Hinton II […] (Baltimore Biological Laboratories) following the recommendations of the National Committee for Clinical Laboratory Standards [Methods for dilution antimicrobial susceptibility tests for bacteria that grow aerobically, approved standard M7-A2, National Committee for Clinical Laboratory Standards, Villanova, Pa.].
(§3) An inoculum level of 5×10^5 CFU/mL, and a range of antibiotic concentrations (64-0.06 μg/mL) is used. […] The test organisms include a spectrum of Gram-positive bacteria comprised of Staphylococcus sp., Streptococcus sp. and Enterococcus sp. These organisms include recent clinical isolates that are resistant to methicillin, penicillin and/or vancomycin.

[2] = tested on: Streptococcus sp.; details: broth dilution, 18 hours at 35° C.
Method: as §1, §2, §3

[3] = tested on: Staphylococcus sp.; details: broth dilution, 18 hours at 35° C.
Method: as §1, §2, §3

[4] = tested on: Escherichia coli; details: 18 hours at 35° C.
Method: as §2, §3

MIC Enterococcus avium (GC 4558) [1]: 4 µg/mL (≈ 2.83 µM)
MIC Enterococcus faecalis (ATCC 29212) [1]: 8 µg/mL (≈ 5.65 µM)
MIC Enterococcus faecalis (GC 2242) [1]: 8 µg/mL (≈ 5.65 µM)
MIC Enterococcus faecalis (GC 2691) [1]: 8 µg/mL (≈ 5.65 µM)
MIC Enterococcus faecalis (GC 3059) [1]: 8 µg/mL (≈ 5.65 µM)
MIC Enterococcus faecalis (GC 4552) [1]: 8 µg/mL (≈ 5.65 µM)
MIC Enterococcus faecalis (GC 4553) [1]: 8 µg/mL (≈ 5.65 µM)
MIC Enterococcus faecalis (GC 4554) [1]: 8 µg/mL (≈ 5.65 µM)
MIC Enterococcus faecalis (GC 6189) [1]: 8 µg/mL (≈ 5.65 µM)
MIC Enterococcus faecium (GC 2243) [1]: 8 µg/mL (≈ 5.65 µM)
MIC Enterococcus faecium (GC 4556) [1]: 8 µg/mL (≈ 5.65 µM)
MIC Enterococcus faecium (GC 4557) [1]: 4 µg/mL (≈ 2.83 µM)
MIC Enterococcus faecalis (ATCC 29212) ([1]; inoculum 5×10^5 CFU/mL, strain ATCC 29212): 8 µg/mL (≈ 5.65 µM)
MIC Enterococcus faecalis (GC 2242) ([1]; inoculum 5×10^5 CFU/mL, strain GC 2242): 8 µg/mL (≈ 5.65 µM)
MIC Enterococcus faecium (GC 2243) ([1]; inoculum 5×10^5 CFU/mL, strain GC 2243): 8 µg/mL (≈ 5.65 µM)
MIC Enterococcus faecalis (GC 2691) ([1]; inoculum 5×10^5 CFU/mL, strain GC 2691): 8 µg/mL (≈ 5.65 µM)
MIC Enterococcus faecalis (GC 3059) ([1]; inoculum 5×10^5 CFU/mL, strain GC 3059): 8 µg/mL (≈ 5.65 µM)
MIC Enterococcus faecalis (GC 4552) ([1]; inoculum 5×10^5 CFU/mL, strain GC 4552): 8 µg/mL (≈ 5.65 µM)
MIC Enterococcus faecalis (GC 4553) ([1]; inoculum 5×10^5 CFU/mL, strain GC 4553): 8 µg/mL (≈ 5.65 µM)
MIC Enterococcus faecalis (GC 4554) ([1]; inoculum 5×10^5 CFU/mL, strain GC 4554): 8 µg/mL (≈ 5.65 µM)
MIC Enterococcus faecium (GC 4556) ([1]; inoculum 5×10^5 CFU/mL, strain GC 4556): 8 µg/mL (≈ 5.65 µM)
MIC Enterococcus faecium (GC 4557) ([1]; inoculum 5×10^5 CFU/mL, strain GC 4557): 4 µg/mL (≈ 2.83 µM)
MIC Enterococcus avium (GC 4558) ([1]; inoculum 5×10^5 CFU/mL, strain GC 4558): 4 µg/mL (≈ 2.83 µM)
MIC Enterococcus faecalis (GC 6189) ([1]; inoculum 5×10^5 CFU/mL, strain GC 6189): 8 µg/mL (≈ 5.65 µM)
MIC Streptococcus agalactiae (GC 4564) [2]: 1 µg/mL (≈ 0.706 µM)
MIC Streptococcus pneumoniae (ATCC 6301) [2]: 0.5 µg/mL (≈ 0.353 µM)
MIC Streptococcus pneumoniae (GC 1894) [2]: <0.06 µg/mL
MIC Streptococcus pneumoniae (GC 4565) [2]: 0.25 µg/mL (≈ 0.177 µM)
MIC Streptococcus pyogenes (GC 4563) [2]: 1 µg/mL (≈ 0.706 µM)
MIC Streptococcus pneumoniae (ATCC 6301) ([2]; inoculum 5×10^5 CFU/mL, strain ATCC 6301): 0.5 µg/mL (≈ 0.353 µM)
MIC Streptococcus pneumoniae (GC 1894) ([2]; inoculum 5×10^5 CFU/mL, strain GC 1894): <0.06 µg/mL
MIC Streptococcus pyogenes (GC 4563) ([2]; inoculum 5×10^5 CFU/mL, strain GC 4563): 1 µg/mL (≈ 0.706 µM)
MIC Streptococcus agalactiae (GC 4564) ([2]; inoculum 5×10^5 CFU/mL, strain GC 4564): 1 µg/mL (≈ 0.706 µM)
MIC Streptococcus pneumoniae (GC 4565) ([2]; inoculum 5×10^5 CFU/mL, strain GC 4565): 0.25 µg/mL (≈ 0.177 µM)
MIC Staphylococcus aureus (ATCC 29213) ([3]; strain ATCC 29213): 2 µg/mL (≈ 1.41 µM)
MIC Staphylococcus aureus (GC 1131) ([3]; strain GC 1131): 4 µg/mL (≈ 2.83 µM)
MIC Staphylococcus aureus (GC 3051) ([3]; strain GC 3051): 2 µg/mL (≈ 1.41 µM)
MIC Staphylococcus aureus (GC 3053) ([3]; strain GC 3053): 4 µg/mL (≈ 2.83 µM)
MIC Staphylococcus aureus (GC 4541) ([3]; strain GC 4541): 2 µg/mL (≈ 1.41 µM)
MIC Staphylococcus aureus (GC 4542) ([3]; strain GC 4542): 2 µg/mL (≈ 1.41 µM)
MIC Staphylococcus aureus-SMITH (GC 4543) ([3]; strain GC 4543): 2 µg/mL (≈ 1.41 µM)
MIC Staphylococcus aureus (GC 4544) ([3]; strain GC 4544): 4 µg/mL (≈ 2.83 µM)
MIC Staphylococcus aureus (GC 4545) ([3]; strain GC 4545): 2 µg/mL (≈ 1.41 µM)
MIC Coagulase Negative Staphylococcus (GC 4547) ([3]; strain GC 4547): 2 µg/mL (≈ 1.41 µM)
MIC Coagulase Negative Staphylococcus (GC 4548) ([3]; strain GC 4548): 2 µg/mL (≈ 1.41 µM)
MIC Coagulase Negative Staphylococcus (GC 4549) ([3]; strain GC 4549): 2 µg/mL (≈ 1.41 µM)
MIC Coagulase Negative Staphylococcus (GC 4551) ([3]; strain GC 4551): 2 µg/mL (≈ 1.41 µM)
MIC Coagulase Negative Staphylococcus (GC 6257) ([3]; strain GC 6257): 1 µg/mL (≈ 0.706 µM)
MIC Escherichia coli (ATCC 25922) [4]: 32 µg/mL (≈ 22.6 µM)
MIC Escherichia coli (GC 4559) [4]: 32 µg/mL (≈ 22.6 µM)
MIC Escherichia coli (GC 4560) [4]: 2 µg/mL (≈ 1.41 µM)
Compound: CC(c1ccccc1)C1NC(=O)CNC(=O)C(CO)NC(=O)C(C(O)C2CNC(=N)N2C2OC(CO)C(O)C(O)C2O)NC(=O)C(C(O)C2CNC(=N)N2)NC(=O)C(Cc2ccc(OC3OC(CO)C(OC4OC5COC6(OC5C(O)C4O)C4CCCC6CCC4)C(O)C3O)cc2)NC1=O (stereo not shown) [Example 212]
MIC Staphylococcus haemolyticus (GC 4546) ([3]; strain GC 4546): 2 µg/mL (≈ 1.41 µM)
